The term MIC denotes the least concentration at which growth counts as inhibited.

Holding throughout (experiment): MIC by agar dilution method
Common to all, as to assay type: cell-based
(In general: In agar dilution, organisms are placed on agar that contains the substance at set levels.)

One assay concerns Candida albicans CCH 442. To be noted: CCH442; Table 6c, 3rd value column (head printed II); III Candida albicans CCH 442; agar dilution; read-out: MIC II. As for the experimental part:
(§1) Minimal inhibitory concentrations (MICs) were determined by an agar dilution method. The test compounds were serially diluted in MeOH and 0.2 mL portions were mixed with 20 mL of molten, cooled Sabouraud dextrose agar (Difco). Yeast cell inoculum was prepared by growing cultures on Sabouraud dextrose agar for 18 hours at 32° C. and suspending the cells in phosphate buffered saline. Filamentous fungi were grown under the same conditions for 4 days to obtain spores. The inoculum level for all cultures was adjusted to 10^4 cells using a Petroff-Hauser cell counter. The glutarimide antifungal compounds cycloheximide or amphotericin B were used as a control. Inoculated test plates were incubated at 32° C. and examined after 20 hours.

For assay [1], the system named is Candida albicans ATCC 38247. To be noted: ATCC38247; Table 6c; IV Candida albicans ATCC 38247; agar dilution; read-out: MIC IV. As for the experimental part: as §1
Assay [2] deals with Candida albicans ATCC 10231. To be noted: ATCC10231; Table 6c; I Candida albicans ATCC 10231; agar dilution; read-out: MIC I. The method, then:
as §1

For the next assay, the system named is Candida albicans 579a. To be noted: Table 6c; II Candida albicans 579a; agar dilution; read-out: MIC II. As for the experimental part: as §1
In assay [3] the test system is Candida albicans ATCC 62376. To be noted: ATCC62376; Table 6c; V Candida albicans ATCC 62376; agar dilution; read-out: MIC V. The method, then:
as §1

Converted amounts (≈) assume the structure as drawn.

Consider `CCCCC/C=C/C=C/C(=O)OC[C@H]1O[C@@H](O[C@H]2[C@H](OC(=O)/C=C/C=C/C[C@H](O)/C=C/C=C/CCCCC)[C@@H](O)[C@H](c3c(O)cc(O)cc3CO)O[C@@H]2CO)[C@H](O[C@@H]2O[C@H](CO)[C@H](O)[C@H](O)[C@H]2O)[C@@H](O)[C@H]1O` [Example 11], for which the MIC was 1.56 µg/mL (≈ 1.52 µM) in the assay on Candida albicans CCH 442; 1.56 µg/mL (≈ 1.52 µM) in assay [1]; 1.56 µg/mL (≈ 1.52 µM) in assay [2]; 0.78 µg/mL (≈ 0.762 µM) with Candida albicans 579a; 3.12 µg/mL (≈ 3.05 µM) in assay [3].
On to `CCCCC/C=C/C=C/[C@@H](O)C/C=C/C=C/C(=O)O[C@@H]1[C@@H](O)[C@H](c2c(O)cc(O)cc2CO)O[C@H](CO)[C@H]1O[C@@H]1O[C@H](COC(=O)CCC)[C@H](O)[C@H](O)[C@H]1O[C@@H]1O[C@H](CO)[C@H](O)[C@H](O)[C@H]1O` [Example 12], for which the MIC in the assay with Candida albicans CCH 442 turned out to be 25 µg/mL (≈ 26.5 µM); in assay [1], 25 µg/mL (≈ 26.5 µM); in assay [2] it was 50 µg/mL (≈ 53 µM); in the assay with Candida albicans 579a, 50 µg/mL (≈ 53 µM); in assay [3], 50 µg/mL (≈ 53 µM).
With `CCCCC/C=C/C=C/[C@@H](O)C/C=C/C=C/C(=O)O[C@@H]1[C@@H](O)[C@H](c2c(O)cc(O)cc2CO)O[C@H](CO)[C@H]1O[C@@H]1O[C@H](COC(=O)CCCCCCCCC)[C@H](O)[C@H](O)[C@H]1O[C@@H]1O[C@H](CO)[C@H](O)[C@H](O)[C@H]1O` [Example 13], the MIC was determined as 6.25 µg/mL (≈ 6.08 µM) in the assay on Candida albicans CCH 442; 12.5 µg/mL (≈ 12.2 µM) in assay [1]; 12.5 µg/mL (≈ 12.2 µM) in assay [2]; 12.5 µg/mL (≈ 12.2 µM) in the assay with Candida albicans 579a; 12.5 µg/mL (≈ 12.2 µM) in assay [3].
`CCCCC/C=C/C=C/[C@@H](O)C/C=C/C=C/C(=O)O[C@@H]1[C@@H](O)[C@H](c2c(O)cc(O)cc2CO)O[C@H](CO)[C@H]1O[C@@H]1O[C@H](COC(=O)c2ccccc2)[C@H](O)[C@H](O)[C@H]1O[C@@H]1O[C@H](CO)[C@H](O)[C@H](O)[C@H]1O` [Example 14]: the minimum inhibitory concentration (MIC) in the assay with Candida albicans CCH 442 was 12.5 µg/mL (≈ 12.8 µM); in assay [1], 6.25 µg/mL (≈ 6.4 µM); in assay [2] it was 12.5 µg/mL (≈ 12.8 µM); in the assay on Candida albicans 579a, 6.25 µg/mL (≈ 6.4 µM); in assay [3] it was 12.5 µg/mL (≈ 12.8 µM).
For the compound `CCCCC/C=C/C=C/[C@@H](O)C/C=C/C=C/C(=O)O[C@@H]1[C@@H](O)[C@H](c2c(O)cc(O)cc2CO)O[C@H](CO)[C@H]1O[C@@H]1O[C@H](COC(=O)c2ccc(CCCC)cc2)[C@H](O)[C@H](O)[C@H]1O[C@@H]1O[C@H](CO)[C@H](O)[C@H](O)[C@H]1O` [Example 15], the MIC was 3.12 µg/mL (≈ 3.02 µM) in the assay with Candida albicans CCH 442; 1.56 µg/mL (≈ 1.51 µM) in assay [1]; 3.12 µg/mL (≈ 3.02 µM) in assay [2]; 0.78 µg/mL (≈ 0.755 µM) with Candida albicans 579a; 1.56 µg/mL (≈ 1.51 µM) in assay [3].
`CCCCC/C=C/C=C/[C@@H](O)C/C=C/C=C/C(=O)O[C@@H]1[C@@H](O)[C@H](c2c(O)cc(O)cc2CO)O[C@H](CO)[C@H]1O[C@@H]1O[C@H](COC(=O)/C=C/c2ccccc2)[C@H](O)[C@H](O)[C@H]1O[C@@H]1O[C@H](CO)[C@H](O)[C@H](O)[C@H]1O` [Example 16]: the MIC was found to be 12.5 µg/mL (≈ 12.5 µM) with Candida albicans CCH 442; 6.25 µg/mL (≈ 6.23 µM) in assay [1]; 12.5 µg/mL (≈ 12.5 µM) in assay [2]; 12.5 µg/mL (≈ 12.5 µM) with Candida albicans 579a; 12.5 µg/mL (≈ 12.5 µM) in assay [3].
As for `CCCCC/C=C/C=C/[C@@H](O)C/C=C/C=C/C(=O)O[C@@H]1[C@@H](O)[C@H](c2c(O)cc(O)cc2CO)O[C@H](CO)[C@H]1O[C@@H]1O[C@H](COC(=O)/C=C/c2cc(C(C)(C)C)cc(C(C)(C)C)c2)[C@H](O)[C@H](O)[C@H]1O[C@@H]1O[C@H](CO)[C@H](O)[C@H](O)[C@H]1O` [Example 17], the MIC amounted to 3.12 µg/mL (≈ 2.8 µM) in the assay with Candida albicans CCH 442; 3.12 µg/mL (≈ 2.8 µM) in assay [1]; 6.25 µg/mL (≈ 5.6 µM) in assay [2]; 3.12 µg/mL (≈ 2.8 µM) in the assay on Candida albicans 579a; 6.25 µg/mL (≈ 5.6 µM) in assay [3].
`CCCCC/C=C/C=C/[C@@H](O)C/C=C/C=C/C(=O)O[C@@H]1[C@@H](O)[C@H](c2c(O)cc(O)cc2CO)O[C@H](CO)[C@H]1O[C@@H]1O[C@H](COC(=O)c2ccc(OCCCCCCCC)cc2)[C@H](O)[C@H](O)[C@H]1O[C@@H]1O[C@H](CO)[C@H](O)[C@H](O)[C@H]1O` [Example 18]: the MIC in the assay on Candida albicans CCH 442 was 1.56 µg/mL (≈ 1.41 µM); in assay [1], 1.56 µg/mL (≈ 1.41 µM); in assay [2], 3.12 µg/mL (≈ 2.82 µM); in the assay on Candida albicans 579a it was 1.56 µg/mL (≈ 1.41 µM); in assay [3] it was 0.78 µg/mL (≈ 0.706 µM).

(Values after US5773421A, “Antifungal fusacandins” (Abbott Laboratories, priority 1995, dated 1998).)
